Target: T1, Solute carrier family 22 member 1 (Homo sapiens, UniProt O15245)
T1 sequence (O15245 whole entry): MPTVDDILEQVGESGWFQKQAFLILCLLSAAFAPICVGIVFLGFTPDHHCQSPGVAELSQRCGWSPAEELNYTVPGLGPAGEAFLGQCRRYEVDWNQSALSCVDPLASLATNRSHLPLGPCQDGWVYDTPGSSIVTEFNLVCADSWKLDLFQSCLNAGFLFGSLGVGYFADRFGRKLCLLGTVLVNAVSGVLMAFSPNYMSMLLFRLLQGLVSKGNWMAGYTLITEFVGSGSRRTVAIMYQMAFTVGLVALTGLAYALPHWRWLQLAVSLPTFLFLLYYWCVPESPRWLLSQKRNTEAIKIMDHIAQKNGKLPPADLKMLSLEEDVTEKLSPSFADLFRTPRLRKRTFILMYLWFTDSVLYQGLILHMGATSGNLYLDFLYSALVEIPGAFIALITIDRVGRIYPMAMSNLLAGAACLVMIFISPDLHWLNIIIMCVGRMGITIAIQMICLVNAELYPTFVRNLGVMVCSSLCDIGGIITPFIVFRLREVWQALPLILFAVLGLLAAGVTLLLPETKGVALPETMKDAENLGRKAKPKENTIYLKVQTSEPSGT
Test: TP_TRANSPORTER: inhibition of TEA uptake in OCT1-expressing HeLa cells

IC50: 4.3 µM
SMILES: CN(C)CCCN1c2ccccc2Sc2ccc(Cl)cc21 [CHLORPROMAZINE]

Source: ChEMBL document CHEMBL2074231, “Influence of molecular structure on substrate binding to the human organic cation transporter, hOCT1” (Mol Pharmacol, 2003)
